Laboratory results reported in PMC9030254, “Target Hopping from Protein Kinases to PXR: Identification of Small-Molecule Protein Kinase Inhibitors as Selective Modulators of Pregnane X Receptor from TüKIC Library” (Cells, 2022).

Assays:
Assay in all cases: Kinase profiling
Assay type in all cases: biochemical
BMX = molecular target: T1, BMX (Homo sapiens, UniProt P51813)
T1 construct: purchased ProQinase (Freiburg, Germany)
T1 sequence (P51813 1-675): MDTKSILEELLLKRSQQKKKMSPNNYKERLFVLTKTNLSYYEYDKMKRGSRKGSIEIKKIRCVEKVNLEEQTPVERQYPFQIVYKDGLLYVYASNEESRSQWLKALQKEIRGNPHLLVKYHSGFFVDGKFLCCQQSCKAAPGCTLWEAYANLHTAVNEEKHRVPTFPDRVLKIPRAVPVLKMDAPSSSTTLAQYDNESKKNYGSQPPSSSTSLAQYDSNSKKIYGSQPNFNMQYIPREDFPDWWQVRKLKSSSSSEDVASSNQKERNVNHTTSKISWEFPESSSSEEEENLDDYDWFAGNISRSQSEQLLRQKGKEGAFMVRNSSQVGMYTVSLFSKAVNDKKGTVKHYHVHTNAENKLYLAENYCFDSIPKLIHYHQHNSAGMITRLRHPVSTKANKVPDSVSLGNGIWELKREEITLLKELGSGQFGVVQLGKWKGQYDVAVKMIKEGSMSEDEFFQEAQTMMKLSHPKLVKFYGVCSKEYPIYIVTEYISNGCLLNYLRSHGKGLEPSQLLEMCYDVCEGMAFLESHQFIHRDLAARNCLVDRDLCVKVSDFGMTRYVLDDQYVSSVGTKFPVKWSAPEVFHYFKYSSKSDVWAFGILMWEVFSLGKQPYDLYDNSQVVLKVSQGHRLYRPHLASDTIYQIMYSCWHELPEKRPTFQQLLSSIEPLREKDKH
Method: (§1) The analysis was performed by ProQinase (Freiburg, Germany).

NEK1 = molecular target: T2, NEK1 (Homo sapiens, UniProt Q96PY6)
T2 construct: purchased ProQinase (Freiburg, Germany)
T2 sequence (Q96PY6 1-1258): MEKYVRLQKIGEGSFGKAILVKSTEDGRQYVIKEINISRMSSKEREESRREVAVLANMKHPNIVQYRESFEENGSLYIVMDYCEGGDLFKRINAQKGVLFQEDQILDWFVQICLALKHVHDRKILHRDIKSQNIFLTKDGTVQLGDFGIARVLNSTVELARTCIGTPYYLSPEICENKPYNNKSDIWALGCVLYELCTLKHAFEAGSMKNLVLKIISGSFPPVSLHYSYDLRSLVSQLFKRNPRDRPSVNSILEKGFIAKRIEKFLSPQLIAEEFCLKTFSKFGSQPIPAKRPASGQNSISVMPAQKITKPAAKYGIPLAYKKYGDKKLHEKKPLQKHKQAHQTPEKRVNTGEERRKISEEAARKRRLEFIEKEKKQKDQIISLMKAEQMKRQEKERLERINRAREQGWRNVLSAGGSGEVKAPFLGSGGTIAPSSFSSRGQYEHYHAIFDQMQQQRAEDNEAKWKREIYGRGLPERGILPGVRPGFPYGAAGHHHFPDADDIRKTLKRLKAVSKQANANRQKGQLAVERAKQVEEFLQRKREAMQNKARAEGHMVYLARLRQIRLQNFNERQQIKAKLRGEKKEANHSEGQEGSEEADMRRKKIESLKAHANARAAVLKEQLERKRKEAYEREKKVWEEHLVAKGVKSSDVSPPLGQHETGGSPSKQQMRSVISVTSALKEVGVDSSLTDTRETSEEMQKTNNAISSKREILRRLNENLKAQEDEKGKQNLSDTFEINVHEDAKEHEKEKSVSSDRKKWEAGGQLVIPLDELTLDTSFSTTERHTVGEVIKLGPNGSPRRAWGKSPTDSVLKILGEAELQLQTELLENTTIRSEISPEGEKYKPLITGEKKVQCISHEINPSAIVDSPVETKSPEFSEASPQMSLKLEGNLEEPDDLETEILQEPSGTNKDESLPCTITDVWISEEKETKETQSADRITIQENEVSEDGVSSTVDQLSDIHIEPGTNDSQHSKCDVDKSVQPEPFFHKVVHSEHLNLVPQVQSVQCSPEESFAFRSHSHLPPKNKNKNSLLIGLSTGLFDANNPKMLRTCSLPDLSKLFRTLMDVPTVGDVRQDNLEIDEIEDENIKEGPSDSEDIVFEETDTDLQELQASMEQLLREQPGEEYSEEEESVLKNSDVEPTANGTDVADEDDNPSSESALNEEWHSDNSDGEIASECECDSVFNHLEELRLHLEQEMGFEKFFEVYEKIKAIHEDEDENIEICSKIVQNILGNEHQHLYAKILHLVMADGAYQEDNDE
Method: as §1

CSK = molecular target: T3, CSK (Homo sapiens, UniProt P41240)
T3 construct: purchased ProQinase (Freiburg, Germany)
T3 sequence (P41240 whole entry): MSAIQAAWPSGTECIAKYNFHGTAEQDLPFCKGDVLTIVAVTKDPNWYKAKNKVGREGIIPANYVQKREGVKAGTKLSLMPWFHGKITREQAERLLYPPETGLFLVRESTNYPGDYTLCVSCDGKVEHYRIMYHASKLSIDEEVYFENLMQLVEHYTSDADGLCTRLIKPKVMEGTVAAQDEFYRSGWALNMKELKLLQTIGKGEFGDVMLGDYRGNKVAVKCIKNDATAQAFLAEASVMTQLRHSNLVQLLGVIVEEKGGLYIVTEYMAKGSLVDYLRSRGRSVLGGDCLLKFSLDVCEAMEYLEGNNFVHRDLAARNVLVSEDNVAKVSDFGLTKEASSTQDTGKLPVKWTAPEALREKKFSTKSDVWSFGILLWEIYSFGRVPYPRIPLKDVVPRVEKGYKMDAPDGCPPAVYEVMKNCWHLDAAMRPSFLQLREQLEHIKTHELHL
Method: as §1

EPHB1 = molecular target: T4, EPHB1 (Homo sapiens, UniProt P54762)
T4 construct: purchased ProQinase (Freiburg, Germany)
T4 sequence (P54762 18-984): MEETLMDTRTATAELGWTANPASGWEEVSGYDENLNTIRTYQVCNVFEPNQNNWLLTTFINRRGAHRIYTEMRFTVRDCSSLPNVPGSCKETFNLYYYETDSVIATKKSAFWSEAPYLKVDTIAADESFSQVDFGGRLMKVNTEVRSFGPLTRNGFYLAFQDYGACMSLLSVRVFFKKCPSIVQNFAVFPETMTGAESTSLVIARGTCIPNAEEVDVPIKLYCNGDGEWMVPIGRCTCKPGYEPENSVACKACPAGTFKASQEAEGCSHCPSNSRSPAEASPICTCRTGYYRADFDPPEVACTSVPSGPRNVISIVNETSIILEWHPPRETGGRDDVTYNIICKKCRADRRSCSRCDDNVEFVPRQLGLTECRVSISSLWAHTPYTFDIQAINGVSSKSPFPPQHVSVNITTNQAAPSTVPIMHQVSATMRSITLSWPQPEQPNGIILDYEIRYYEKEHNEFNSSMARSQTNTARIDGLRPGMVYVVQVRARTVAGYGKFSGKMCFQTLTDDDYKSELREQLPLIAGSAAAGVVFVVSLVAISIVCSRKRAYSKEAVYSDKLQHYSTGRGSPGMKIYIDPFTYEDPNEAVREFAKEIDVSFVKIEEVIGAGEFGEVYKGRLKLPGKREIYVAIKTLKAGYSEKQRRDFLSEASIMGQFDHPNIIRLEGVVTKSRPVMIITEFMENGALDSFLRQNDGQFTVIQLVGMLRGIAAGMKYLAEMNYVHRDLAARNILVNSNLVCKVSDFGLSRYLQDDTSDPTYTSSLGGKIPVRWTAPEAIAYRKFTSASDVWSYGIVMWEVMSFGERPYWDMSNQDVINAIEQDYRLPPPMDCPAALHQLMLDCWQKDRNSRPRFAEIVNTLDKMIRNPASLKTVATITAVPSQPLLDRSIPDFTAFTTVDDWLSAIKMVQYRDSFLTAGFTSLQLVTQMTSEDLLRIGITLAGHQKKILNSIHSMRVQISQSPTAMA
Method: as §1

SMILES | Residual activity (BMX; 1.0E-05 M) | Residual activity (BMX; 1.0E-06 M) | Residual activity (NEK1; 1.0E-05 M) | Residual activity (NEK1; 1.0E-06 M) | Residual activity (CSK; 1.0E-05 M) | Residual activity (CSK; 1.0E-06 M) | Residual activity (EPHB1; 1.0E-05 M) | Residual activity (EPHB1; 1.0E-06 M)
O=C(Nc1ccc(F)c(Nc2ccc3c(c2)CCCCC3=O)c1)c1cccc(F)c1 [Compound 109] | 83 % of control | 100 % of control | 93 % of control | 96 % of control | 109 % of control | 112 % of control | 95 % of control | 113 % of control
O=C(Cc1ccccc1)Nc1ccc(F)c(Nc2ccc3c(c2)CCCCC3=O)c1 [Compound 100] | 71 % of control | 111 % of control | 96 % of control | 98 % of control | 96 % of control | 106 % of control | 103 % of control | 113 % of control
